Laboratory results as given in patent EP0609289B1, “IMIDAZOLE DERIVATIVES AND PHARMACEUTICAL COMPOSITIONS CONTAINING THE SAME” (THE UPJOHN COMPANY, priority 1991, dated 1993).

Key:
Angiotensin II receptor = assay: In vitro angiotensin II mesenteric artery receptor binding assay (test 1); settings: rat mesenteric artery membrane fraction, 0.2 nM 125I-Ang II, 22°C, 90 minutes
Method: I) In vitro angiotensin II mesenteric artery receptor binding assay
According to the method (1) by Gunther et al., a membrane fraction was prepared from mesenteric artery of male rat, […] protein equivalent of it and 0.2 nM ^125I-Ang II as well as various concentrations of test compounds were incubated at 22°C for 90 minutes in an incubation buffer (50 mM Tris-HCl, 120 mM NaCl, 5 mM MgCl2. 0.25% bovine serum albumin, pH 7.2) (reaction volume; 200 µl). The incubated was cooled, and the reaction was stopped by addition of ice-cooled phosphate buffer (10 mM phosphate, 140 mM NaCI, pH 7.4, hereinafter referred to as PBS), and then the reaction solution was filtered through a glass fiber filter (Whatman CF/B), the filter was washed, dried, and then the radioactivity of captured ^125I-angiotensin II which bound to the receptor was measured by a γ-counter. Non-specific bound amount was obtained from the reaction in the presence of 1 µM of unlabeled angiotensin II. […] Res., 17:278-286, 1980].

[1] = tested on: blood pressure increase by angiotensin II; assay: Antagonism to blood pressure increase by angiotensin II in a spine destroyed (pithed) rat (test 4); format: in vivo, Wistar rat; settings: intravenous administration, 3µg/kg angiotensin II, read-out: Inhibition of blood pressure increase by angiotensin II in pithed rat ED50(mg/kg) (test 4)
Excerpt: 4) Antagonism to blood pressure increasing by angiotensin II in a spine destroyed rat
Wistar rat anaesthetized with pentobarbital was fixed at dorsal position, and a cannula for measuring blood pressure was inserted into sinister arteria carotis communis, and a cannula for administration of the test compound into dexter external jugular vein and a cannula for administration of angiotensin II into sinister external jugular vein, ambilateral nervus vagus was cut, and artificial respiration was carried out. A thin bar made of metal was stabbed into spinal column through sinister orbita to destroy spine. Blood pressure was recorded on polygraph via pressure transducer from an arterial cannula. After blood pressure was stable for more than 30 min., 3µg/kg of angiotensin II was administered intravenously four times every 15 min, and every 5 min. before the administration of angiotensin II from the second administration onward, a solvent, a lower dose of the test compound, and a higher dose of the test compound were administered intravenously in this order to observe the blood pressure increasing response by angiotensin II. ED50 values were calculated from the inhibiting rate when the first blood pressure increase by angiotensin II was regarded as 100 %.

Compound | IC50 (Angiotensin II receptor) | ED50 [1]
CCCCc1nc2c(=O)n3n(c(=O)c2n1Cc1ccc(-c2ccccc2-c2nn[nH]n2)cc1)CC(C)=C(C)C3 [compound 68, 2-n-butyl-5,8-dihydro-6,7-dimethyl-1-[(2'-(1H-tetrazol-5-yl)biphenyl-4-yl)methyl]-1H-1,3,4a,8a-tetraza-cyclopentanaphthalene-4,9-dione] | 8.1 nM | 0.56 mg/kg
CCCc1nc2c(=O)n3n(c(=O)c2n1Cc1ccc(-c2ccccc2-c2nn[nH]n2)cc1)CC(C)C(C)C3 (centres unmarked) [Compound No. 50, 6,7-dimethyl-2-n-propyl-5,6,7,8-tetrahydro-1-[(2'-(1H-tetrazol-5-yl)biphenyl-4-yl)methyl]-1H-1,3,4a,8a-tetraza-cyclopentanaphthalene-4,9-dione] | 5.3 nM | 0.2 mg/kg
CCCc1nc2c(=O)n3n(c(=O)c2n1Cc1ccc(-c2ccccc2-c2nnn[nH]2)cc1)C1CCC3(C(=O)N(CC)CC)CC1 [Compound No. 231, 4,9-dioxo-5,8-ethano-2-n-propyl-5,6,7,8-tetrahydro-1-[{2'-(1H-tetrazol-5-yl)biphenyl-4-yl}methyl]-1H-1,3,4a,8a-tetraza-cyclopentanaphthalene-5-carboxy-N,N-diethylamide] | 9.8 nM | 0.074 mg/kg
CCCc1nc2c(=O)n3n(c(=O)c2n1Cc1ccc(-c2ccccc2-c2nnn[nH]2)cc1)C1(COCC(=O)OC(C)(C)C)CCC3CC1 [Compound No. 225, 8-t-butoxycarboxylmethoxymethyl-5,8-ethano-2-n-propyl-5,6,7,8-tetrahydro-1-[{2'-(1H-tetrazol-5-yl)biphenyl-4-yl}methyl]-1H-1,3,4a,8a-tetraza-cyclopentanaphthalene-4,9-dione] | 66 nM | 
CCCc1nc2c(=O)n3n(c(=O)c2n1Cc1ccc(-c2ccccc2-c2nn[nH]n2)cc1)C(C(=O)O)CCC3C (centres unmarked) [compound 56, 4,9-dioxo-5-methyl-2-n-propyl-5,6,7,8-tetrahydro-1-[(2'-(1H-tetrazol-5-yl)biphenyl-4-yl)methyl]-1H-1,3,4a,8a-tetraza-cyclopentanaphthalene-8-carboxylic acid] | > 30 nM | 
CCCc1nc2c(=O)n3n(c(=O)c2n1Cc1ccc(-c2ccccc2-c2nnn[nH]2)cc1)C1(COCC(C)O)CCC3CC1 (centres unmarked) [Compound No. 229, 5,8-ethano-8-(2-hydroxypropyl)methoxymethyl-2-n-propyl-5,6,7,8-tetrahydro-1-[{2'-(1H-tetrazol-5-yl)biphenyl-4-yl}methyl]-1H-1,3,4a,8a-tetraza-cyclopentanaphthalene-4,9-dione] | 8.7 nM | 
CCCCc1nc2c(=O)n3n(c(=O)c2n1Cc1ccc(-c2ccccc2-c2nn[nH]n2)cc1)C1(C(=O)OC)CCC3CC1 [Compound No. 156, methyl 2-n-butyl-5,8-ethano-4,9-dioxo-5,6,7,8-tetrahydro-1-[{2'-(1H-tetrazol-5-yl)biphenyl-4-yl}methyl]-1H-1,3,4a,8a-tetraza-cyclopentanaphthalene-8-carboxylate] | 69 nM | 

The next compounds have a lower IC50 (Angiotensin II receptor) than those just listed; values first:

IC50 (Angiotensin II receptor) | Compound | ED50 [1]
4.6 nM | CCCCc1nc2c(=O)n3n(c(=O)c2n1Cc1ccc(-c2ccccc2-c2nn[nH]n2)cc1)C1CCC3(C(=O)OCC)CC1 [Compound No. 196, ethyl 2-n-butyl-4,9-dioxo-5,8-ethano-5,6,7,8-tetrahydro-1-[{2'-(1H-tetrazol-5-yl)biphenyl-4-yl}methyl]-1H-1,3,4a,8a-tetraza-cyclopentanaphthalene-5-carboxylate] | 0.23 mg/kg
3.2 nM | CCCCc1nc2c(=O)n3n(c(=O)c2n1Cc1ccc(-c2ccccc2-c2nn[nH]n2)cc1)C(C(=O)OCC)CCC3C (centres unmarked) [compound 167, ethyl 2-n-butyl-4,9-dioxo-5-methyl-5,6,7,8-tetrahydro-1-[{2'-(1H-tetrazol-5-yl)biphenyl-4-yl}methyl]-1H-1,3,4a,8a-tetraza-cyclopentanaphthalene-8-carboxylate] | 
1.3 nM | CCCCc1nc2c(n1Cc1ccc(-c3ccccc3-c3nn[nH]n3)cc1)C(=O)N1C3CCC(C)(CC3)N1C2 [Compound No. 443, 2-n-butyl-5,8-ethano-5-methyl-5,6,7,8-tetrahydro-1-[{2'-(1H-tetrazol-5-yl)biphenyl-4-yl}methyl]-1H,4H-1,3,4a,8a-tetraza-cyclopentanaphthalene-9-one] | 
